Lip = lipoyl residue of R or S configuration
Tests used:
Keratinocytes NCTC-2544 = assay: UVA-induced oxidative lesions (formation of 8-oxo D guanosine) in keratinocytes; format: cell-based, human; conditions: 24 h + 30 min re-stimulation, UVA 15 J/cm^2, UVA-irradiated cells 100%, non treated cells 0%
Method: Material: Keratinocytes NCTC-2544.
Treatment: Keratinocytes were incubated with either peptide (A1 or B1) for 24 h, re-stimulated with the same peptide for 30 minutes and then irradiated with UVA (15 J/cm^2).
Results: The cells exposed to UVs are subjected to damages/lesions induced by oxidative stress. The oxydative damages or lesions were monitored with the formation of 8-oxo D guanosine and the effect of the peptides was expressed as a percentage of inhibition of the production of oxidative damages/lesions.

[1] = tested on: IL-1α-induced IL-8 production; assay: Inhibition of IL-1α-induced IL-8 production (ELISA) in normal human dermal fibroblasts; format: cell-based; conditions: concomitant with IL-1α for 24 hours
normal human melanocytes = assay: Comet test: internal photo protection against UVA- and UVB-induced DNA strand breaks; format: cell-based; conditions: peptide 3 × 10^−8 M, 2 h at 37° C., non treated cells 100%, irradiated cells 0%; for CGP (%) coefficient of genomic protection against UVA: then UVA 365 nm, 0.8 J/cm^2; for CGP (%) coefficient of genomic protection against UVB: then UVB 312 nm, 0.06 J/cm^2
Method: The proto protective ability of peptides A1 and B1 against UVA and UVB was evaluated using a Comet test according to the protocol of De Meo (De Meo et al. Mutation Res. 1991; 260; 295-306).
The comet test enables the quantification of DNA strand breaks induced by a genotoxic agent.
Material: Primary culture of normal human melanocytes.
Treatment: Cells were treated for 2 h at 37° C. with peptides A1 and B1 separately at 3×10^−8 M and then exposed to UVA (365 nm, 0.8 J/cm^2) or UVB (312 nm/0.06 J/cm^2).
Results are reported in Table 1 below as a coefficient of genomic protection against UVA or UVB (CGP %).

glutathione = assay: Glutathione regeneration in the presence of a superoxide anion by fluorometry (HRP/scopoletine); format: biochemical; conditions: glutathione 10^−4 to 5×10^−5 M with or without peptide 10^−4 to 5×10^−5 M, HRP 3 μg/ml, reading at 180 seconds
Description: Peroxydase (Horseradish peroxydase or HRP) transforms H2O2 into O2^•− which reacts on fluorescent scopoletine and transforms it into a non fluorescent species. A rapid decrease in fluorescence is observed as a function of O2^•− release. In the presence of a scavenger for radical O2^•− (such as glutathione), the decrease in fluorescence is less pronounced. (Antioxidant Characterisation, Methodology and Mechanism, Barry Halliwell, Biochemical Pharmacology, 49, 1341-1348, (1995)) and (The scopoletin assay for hydrogen peroxide, a review and a better method, Jean T. Corbett, J. Biochem. Biophys. Methods, 18, 297-308 (1989)).
Material: A fluorometer set at 394 nm (excitation state) with a slot of 6, and 455 nm (emitting state) with a slot of 8 was used. Continuous data collection was made over a period of 180 seconds. The data obtained at the end of 180 seconds was compared to that obtained with a negative control (without scavenger) and that with a positive control (without free radicals).
The tested mixture comprised HRP (3 μg/ml), scopoletine (5×10^−6M), glutathione (10^−4 to 5×10^−5M), with or without peptide B1 (10^−4 to 5×10^−5 M). An oxygenated water (H2O2) solution was added immediately before reading the first fluorescence measure.
Results are presented in FIG. 3 and are expressed as the percentage of radical scavenging activity as compared to the positive control. […]

Row | Substance | % INHIBITION of the production of oxidative damages/lesions (Keratinocytes NCTC-2544; peptide 1 nM) [%] | % INHIBITION of the production of oxidative damages/lesions (Keratinocytes NCTC-2544; peptide 100 nM) [%] | INHIBITION of IL-8 production ([1]; peptide 10 pM) [%] | INHIBITION of IL-8 production ([1]; peptide 1 nM) [%] | CGP (%) coefficient of genomic protection against UVA (normal human melanocytes) [%] | CGP (%) coefficient of genomic protection against UVB (normal human melanocytes) [%] | glutathione regeneration activity (radical scavenging activity compared to positive control) (glutathione)
1 | Lip-His-DPhe-Arg-Trp-NH2 [Peptide B1] | −50 | −76 | 56 | 60 | 69.9 | 85.8 | displayed a glutathione regeneration activity
2 | Lip-Lys-Gly-His-Lys-NH2 (Lip-KGHK-NH2) [Peptide A1] | −27 | −53 |  |  | 93 | 46.2 | 

Reference: patent US20100310484A1, “NOVEL PEPTIDES, USE THEREOF IN COSMETIC AND COSMECEUTIC APPLICATIONS, AND COMPOSITIONS COMPRISING SAME” (Innovactiv Inc., priority 2007, published 2010)
